The source of these data is article PMC9146984, “A Novel Proline-Rich Cathelicidin from the Alpaca Vicugna pacos with Potency to Combat Antibiotic-Resistant Bacteria: Mechanism of Action and the Functional Role of the C-Terminal Region” (Membranes, 2022).

Values after ≈ are worked out from the molar mass of the structure shown. Where two headings read alike, the source gives them in different places. Where a SMILES comes first, the peptide text is derived from it. A value given as a limit tells only on which side of the number the result lay.

Assay [1] deals with E. coli BL21 (DE3) Star cell extract, coupled transcription/translation of EGFP. Description: In vitro transcription/translation inhibition assay (cell-free EGFP synthesis). The following applies: EGFP fluorescence, 2 h, 30 °C; at least two independent experiments in triplicate; read-out: IC50, inhibition of in vitro protein synthesis in the E. coli cell-free system. It is filed as biochemical, Escherichia coli. As for the experimental part:
To investigate the effect of cathelicidins on the coupled transcription/translation process, the peptides were added to a cell-free protein synthesis (CFPS) reaction mix with a plasmid encoding enhanced green fluorescent protein (EGFP) variant (F64L, S65T, Q80R, F99S, M153T, and V163A) under control of the T7 promoter as described previously with some modifications. Briefly, the peptides were dissolved in 0.1% BSA in water. Bac7[1–22] was used as a positive control inhibitor. The fluorescence of the sample without inhibitor was set as the 100% value. The reaction proceeded for 2 h in 96-well v-bottom black polystyrene microplates in a plate shaker (30 °C, 1000 rpm). The fluorescence of the synthesized EGFP was measured with the microplate reader AF2200 (λExc = 488 nm, λEm = 510 nm; Eppendorf, Hamburg, Germany). The experimental data were obtained from at least two independent experiments performed in triplicate. Non-linear regression curves were generated using GraphPad Prism v.8.0.1 (GraphPad Software Inc., San Diego, CA, USA).

In assay [2] the test system is E. coli. Description: Antimicrobial assay (MIC), E. coli strains. It is filed as cell-based, Escherichia coli. The conditions noted are these: Mueller–Hinton broth without NaCl. Here is the method:
(§1) The reduction of resazurin to resorufin was measured.

The test system of assay [3] is E. coli BW25113. In kind it is cell-based, Escherichia coli. The following applies: BW25113, 24 h. As for the experimental part:
as §1

Assay [4] concerns E. coli BW25113 ΔompF. In kind it is cell-based, Escherichia coli. The following applies: Mueller–Hinton broth, 24 h, 37 °C, median. As for the experimental part: as §1
Assay [5] has as its system E. coli BW25113 ΔsbmA. It is filed as cell-based, Escherichia coli. The conditions noted are these: Mueller–Hinton broth, 24 h, 37 °C, median. Here is the method: as §1
The subject of assay [6] is E. coli BW25113 ΔmdtM. It is filed as cell-based, Escherichia coli. The following applies: Mueller–Hinton broth, 24 h, 37 °C, median. As for the experimental part:
as §1

Assay [7] relates to E. coli ATCC 25922. It is filed as cell-based, Escherichia coli. The conditions noted are these: ATCC 25922, 24 h. Here is the method: as §1

What is called IC50 is the concentration at which inhibition is half-maximal. In the case of `CC[C@H](C)[C@H](NC(=O)[C@H](CCCNC(=N)N)NC(=O)[C@@H](N)CCCNC(=N)N)C(=O)N[C@@H](CCCNC(=N)N)C(=O)N[C@@H](CCCNC(=N)N)C(=O)N1CCC[C@H]1C(=O)N[C@@H](CCCNC(=N)N)C(=O)N[C@@H](CC(C)C)C(=O)N1CCC[C@H]1C(=O)N[C@@H](CCCNC(=N)N)C(=O)N1CCC[C@H]1C(=O)N[C@@H](CCCNC(=N)N)C(=O)N[C@H](C(=O)N1CCC[C@H]1C(=O)N[C@@H](CCCNC(=N)N)C(=O)N1CCC[C@H]1C(=O)O)C(C)C` [VicBac[1-16]] (H-RRIRRPRLPRPRVPRP-OH), the IC50 in assay [1] was approximately 4 µM. The “killing of E. coli under salt-free conditions” value in assay [2] fell in the range of 4 to 8 µM.
Consider `CC[C@H](C)[C@H](NC(=O)[C@H](CCCNC(=N)N)NC(=O)[C@@H]1CCCN1C(=O)[C@H](CCCNC(=N)N)NC(=O)[C@@H]1CCCN1C(=O)[C@@H](NC(=O)[C@H](CCCNC(=N)N)NC(=O)[C@@H]1CCCN1C(=O)[C@H](CCCNC(=N)N)NC(=O)[C@@H]1CCCN1C(=O)[C@H](CC(C)C)NC(=O)[C@H](CCCNC(=N)N)NC(=O)[C@@H]1CCCN1C(=O)[C@H](CCCNC(=N)N)NC(=O)[C@H](CCCNC(=N)N)NC(=O)[C@@H](NC(=O)[C@H](CCCNC(=N)N)NC(=O)[C@@H](N)CCCNC(=N)N)[C@@H](C)CC)C(C)C)C(=O)O` [VicBac[1-18]] (H-RRIRRPRLPRPRVPRPRI-OH; N-terminus and C-terminus assumed), for which the “Minimum inhibitory concentration, E. coli strain BW25113” value in assay [3] came to 4 µM (≈ 9.39 µg/mL). Moreover, the “Minimum inhibitory concentration, E. coli strain ΔompF” value in assay [4] (0.9% NaCl: +) was 16 µM (≈ 37.6 µg/mL); in assay [4] (0.9% NaCl: −), 8 µM (≈ 18.8 µg/mL). In addition, the “Minimum inhibitory concentration, E. coli strain ΔsbmA” value in assay [5] (0.9% NaCl: +) is more than 64 µM; in assay [5] (0.9% NaCl: −) it was 4 µM (≈ 9.39 µg/mL). Moreover, the entries for the “Minimum inhibitory concentration, E. coli strain ΔmdtM” value in assay [6] (0.9% NaCl: +) and in assay [6] (0.9% NaCl: −) were 2 µM (≈ 4.7 µg/mL) and 4 µM (≈ 9.39 µg/mL), respectively. Moreover, the “Minimum inhibitory concentration, E. coli strain ATCC 25922” value in assay [7] was 2 µM (≈ 4.7 µg/mL).
